Assay results published in patent US11680253B2, “Transposase-mediated imaging of the accessible genome” (The Board of Trustees of the Leland Stanford Junior …, priority 2016, dated 2023).

How the values were obtained:
Tn5 = Tn5 (Escherichia coli, UniProt Q46731, E54K/L372P); conditions: 50 mM EDTA, HT1080 cells
Experimental: HT1080 cells and HeLa cells were grown on secureSlip cell culture system (0515073, GRACE BIO-LABS) until 80-90% confluent and fixed with 1% formaldehyde (Sigma-Aldrich) for 10 min at room temperature. GM12878 cells were fixed with 1% formaldehyde (Sigma) 10 min at room temperature and centrifuged on the glass slide with Cytospin, 1000 rpm for 5 min, 30-50,000 cells per slide.
ATAC-see: After fixation, the cells (either growing on slide or centrifuged on glass slide with cytospin) were permeabilized with lysis buffer (10 mM Tris-Cl, pH 7.4, 10 mM NaCl, 3 mM MgCl2, 0.01% Igepal CA-630) for 10 min at room temperature. After the permeabilization, the slides were rinsed in PBS twice, and put in humid chamber box at 37° C. The transposase mixture solution (25 μl 2× TD buffer, final concentration of 100 nM Tn5-ATTO-59ON, adding dH2O up to 50 μl) was added on the slide and incubated for 30 min at 37° C. […] After washing, slides were mounted using Vectashield with DAPI (H-1200, Vector labs) for imaging with Leica SP8 or Zeiss 700 or for additional co-staining with Lamin B1 or mitochondria (see the materials and methods above).

human neutrophils = test: NETosis of PMA-activated primary human neutrophils (ATAC-see / ATAC-seq); assay type: cell-based
Experimental: Human neutrophils were isolated from healthy donor's blood following as described under a Stanford University IRB-approved protocol^23. In brief, 7 ml of heparinized blood was layered on 7 ml Histopaque 1119 (11191-100ML, Sigma Aldrich) in a 15 ml Falcon tube, and the mixture was spun 20 min at 800× g at room temperature. The interphase (lymphocytes and monocytes) was discarded and the granulocyte-rich layer of Histopaque 1119 (diffuse, red phase above RBC pellet) was collected in a new tube. 5 ml of cells were washed with 10 ml of medium (HBSS+), and spun 10 min at 200× g at room temperature. The cells were resuspended in 3 ml DPBS with 0.5% human serum albumin (101-15-50, Lee BioSolutions), and the cell suspension was layered on 10 ml of a discontinuous Percoll gradient (85% to 65% Percoll) and spun 20 min at 800×g at room temperature. The interphase between 70% and 75% Percoll layers were collected in a new 15 ml tube. The tube was added with DPBS with 0.5% human serum albumin up to 15 ml and spun for 10 min at 200× g at room temperature. The cell pellet was resuspended in RPMI-HEPES (10 mM) at 1.5×10^6 cells per ml for neutrophil activation.
Human neutrophils were stimulated by Phorbol myristate acetate (PMA) as described^23. Briefly, the purified neutrophils were suspended in 3 ml RPMI 1640 with final concentration of 1.5×10^6 per ml in loosen cap 15 ml falcon tube, and incubated in cell culture CO2 incubator (5% CO2, 37° C.) with final concentration of 30 nM PMA for 1 h, 3 h, and 5 h respectively. After 2 h of simulation, protease inhibitor cocktail was added at a 1:200 dilution to both control and simulated tubes. At the respective time points, neutrophils were fixed with 1% formaldehyde for 10 min at room temperature, and fixed neutrophil cells spun down on the glass slide with cytospin 1000 rpm 5 min at room temperature for ATAC-see or immuno-staining.
The PAD4 inhibition was performed as previously described^25.
80% confluent Human HT1080 cells (30-50,000 cells) grown in 8 well chamber slides were fixed with 1% formaldehyde (Sigma, USA) for 10 min and quenched with 0.125 M glycine for 5 min at room temperature. After fixation, slides were put in PBS at 4° C. […] The 50 μl transposase reaction solution was added onto the slide, and the cells on slide were incubated at 37° C. for 30 min. For the imaging and sequencing, slides were mounted using Vectorshield and images were taken with a Zeiss LSM 700. After imaging, the coverslip was removed and cells were lysed with 50 μl of 50 mM Tris-Cl, 1 mM EDTA, 1% SDS, 0.2 M NaCl 5 min on slide at room temperature. The cell lysis was carefully transferred to 1.5 ml eppendorf tube. The glass slide was washed with 50 μl of the same buffer another 3 times and washing solutions were transferred to the same tube carefully. […]

O=C(O)CN(CCN(CC(=O)O)CC(=O)O)CC(=O)O [EDTA]
ATAC-see signal, % of control (Tn5): 2.69%±0.04

NC(=O)[C@H](CCCN=C(N)CCl)NC(=O)c1ccccc1 [Cl-amidine]
NETosis (human neutrophils; 200 μM Cl-amidine 30 min before PMA stimulation): inhibited | release of free DNA from mononucleosomes (human neutrophils; PAD4i-treated, after 5 hrs of neutrophil activation): fail to release free DNA from mononucleosomes

CCCCCCCCCCCCCC(=O)O[C@@H]1[C@@H](C)[C@@]2(O)[C@@H](C=C(CO)C[C@]3(O)C(=O)C(C)=C[C@@H]23)[C@@H]2C(C)(C)[C@]12OC(C)=O [PMA, Phorbol myristate acetate]
neutrophils that have released their chromatin into the extracellular space (human neutrophils; 30 nM PMA, after 3 hrs of stimulation): 49.7% | neutrophils that have released NETs (human neutrophils; 30 nM PMA, after 5 hrs of stimulation): 59.7%
